# Patent publication US7427625B2, “Substituted thiatriazaacenaphthylene-6-carbonitrile kinase inhibitors” (Janssen Pharmaceutica, N.V., priority 2006, dated 2008)
# Experiments:
# HCT-116 colon carcinoma = experiment: Cell Proliferation Inhibition Assay (14C-thymidine incorporation), HCT116; type: cell-based; conditions: Homo sapiens
# Procedure: (§1) The ability of a test compound to inhibit unregulated cell proliferation was determined by measuring incorporation of ^14C-labelled thymidine into newly synthesized DNA within cell lines derived from carcinomas originating from several tissues. Accordingly, the anti-proliferative effect of a compound on cells with a variety of phenotypes may be determined.
# (§2) Carcinoma cell lines include those such as HeLa cervical adenocarcinoma (American Type Culture Collection (ATCC), Virginia, Cat. #CCL-2), A375 malignant melanoma (ATCC CRL-1619), SK-OV-3 ovarian adenocarcinoma (ATCC HTB-77), HCT-116 colon carcinoma (CCL-247), PC-3 prostate adenocarcinoma (ATCC CRL-1435), and MDA-MB-231 (Xenogen Corp.)
# (§3) The carcinoma cells were trypsinized and counted. The cells (3000-8000 count) were added to each well of a 96-well CytoStar tissue culture treated scintillating microplate (Amersham #RPNQ0160) in complete medium (100 μL) and the plate was then incubated in complete medium for 24 hrs at 37° C. in an […] atmosphere containing 5% CO2. Test compound (1 μL) in 100% DMSO was added to the plate test-wells with DMSO only added to control-wells. The plate was incubated in complete medium for a second 24 hr period at 37° C. in an atmosphere containing 5% CO2.
# (§4) An aliquot of a solution of Methyl ^14C-thymidine ([…]) (NEN #NEC568 or Amersham #CFA532) and complete medium (20 uL to provide 0.2 μCi/well) was then added to each well and the plate was incubated for a third 24 hr period at 37° C. in an atmosphere containing 5% CO2. The plate contents were then discarded, the plate was washed twice with PBS (200 μL) and then PBS (200 μL) was added to each well. The plate was sealed and the degree of methyl ^14C-thymidine incorporation was quantified on a Packard Top Count.
# A375 malignant melanoma = experiment: Cell Proliferation Inhibition Assay (14C-thymidine incorporation), A375; type: cell-based; conditions: Homo sapiens, A-375
# Procedure: as §1, §2, §3, §4
# Aurora-A = molecular target: T1, Aurora-A (Mus musculus, UniProt P97477); experiment: Aurora-A Screening Assay; type: biochemical, murine
# T1 construct: followed by the full length protein encoding the murine Aurora-A; polyhistidine (N); made in house; host or cells: sf9 insect cells
# T1 sequence (P97477 1-395): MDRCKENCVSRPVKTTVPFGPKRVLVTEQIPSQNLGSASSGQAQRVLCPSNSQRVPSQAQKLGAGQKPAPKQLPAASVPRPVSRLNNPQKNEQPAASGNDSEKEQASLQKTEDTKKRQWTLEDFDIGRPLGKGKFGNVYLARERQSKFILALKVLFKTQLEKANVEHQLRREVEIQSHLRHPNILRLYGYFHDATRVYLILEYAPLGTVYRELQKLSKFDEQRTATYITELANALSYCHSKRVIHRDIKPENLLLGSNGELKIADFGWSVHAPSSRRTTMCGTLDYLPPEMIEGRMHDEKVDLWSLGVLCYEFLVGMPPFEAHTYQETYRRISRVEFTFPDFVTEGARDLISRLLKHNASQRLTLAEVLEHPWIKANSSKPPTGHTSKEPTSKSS
# [1] = tested on: HeLa cervical adenocarcinoma; experiment: Cell Proliferation Inhibition Assay (14C-thymidine incorporation), HeLa; type: cell-based; conditions: Homo sapiens
# Procedure: as §1, §2, §3, §4
SMILES,IC50 (HCT-116 colon carcinoma) [µM],IC50 (A375 malignant melanoma) [µM],IC50 (Aurora-A) [µM],IC50 [1] [µM]
"COc1cc(NC(=O)c2sc3ncc(C#N)c4c3c2NC(=O)N4c2ccc(Oc3ccccc3)cc2)ccc1CN1CCOCC1 [Cpd 45, 6-cyano-4-oxo-5-(4-phenoxy-phenyl)-4,5-dihydro-3H-1-thia-3,5,8-triaza-acenaphthylene-2-carboxylic acid (3-methoxy-4-morpholin-4-ylmethyl-phenyl)-amide]",> 10,> 10,> 100,> 100
"CC(C)(C)OC(=O)NC1CCN(Cc2ccc(NC(=O)c3sc4ncc(C#N)c5c4c3NC(=O)N5c3c(Cl)ccc4c3OCO4)cc2)CC1 [Cpd 46, [1-(4-{[5-(5-chloro-benzo[1,3]dioxol-4-yl)-6-cyano-4-oxo-4,5-dihydro-3H-1-thia-3,5,8-triaza-acenaphthylene-2-carbonyl]-amino}-benzyl)-piperidin-4-yl]-carbamic acid tert-butyl ester]",> 10,> 10,> 1,> 10
"N#Cc1cnc2sc(C(=O)Nc3ccc(CCN4CCCCC4)cc3)c3c2c1N(c1ccc(Oc2ccccc2)cc1)C(=O)N3 [Cpd 48, 6-cyano-4-oxo-5-(4-phenoxy-phenyl)-4,5-dihydro-3H-1-thia-3,5,8-triaza-acenaphthylene-2-carboxylic acid [4-(2-piperidin-1-yl-ethyl)-phenyl]-amide]",15.8,8.29,> 100,> 10
"N#Cc1cnc2sc(C(=O)Nc3ccc(CN4CCCCC4)cc3)c3c2c1N(c1ccc(Oc2ccccc2)cc1)C(=O)N3 [Cpd 49, 6-cyano-4-oxo-5-(4-phenoxy-phenyl)-4,5-dihydro-3H-1-thia-3,5,8-triaza-acenaphthylene-2-carboxylic acid (4-piperidin-1-ylmethyl-phenyl)-amide]",0.985,1.38,> 100,2.19
